Holding throughout (assay type): cell-based, human
Experiment [1] concerns SCP2 cells. Briefly: modified transmembrane assay, chemotaxis of SCP2 cells. The following applies: 100 ng/mL in lower chamber, 8 hours, no induced electric field; Control vs SDF control p=0.015, Control vs EGF control p=0.001 (FIG. 4). On the procedure:
Highly metastatic breast cancer cells known as SCP2, a single cell population derived from MDA-MB-231 that is known to metastasize to the bone, were cultured in Dulbecco's Modified Eagle Medium (DMEM; Life Technologies, Gaithersburg, Md., USA), supplemented with 10% heat inactivated fetal bovine serum (FBS), 5 U/mL penicillin, and 5 mg/mL streptomycin. The SCP2 cells were placed in the upper chamber, and both compartments contained 0.1% FBS-DM. The entire apparatus (holder, coil, modified transmembrane chambers with Transwell inserts and cells) was placed in a 37° C. culture incubator with humidified air containing 5% CO2. The leads of the coil were connected to the function generator placed outside the incubator. The cells were allowed to migrate for 8 hours, and then were fixed and stained using Hema-3 stain kit according to the manufacturer's instructions. The number of migratory cells per membrane was then measured using light microscopy by counting the total number of cells in each of five contiguous images spanning radially outward (five fields) from the coil (FIG. 9). […]
In one embodiment, low passage SCP2 cells were cultured in Dulbecco's Modified Eagle's Media (DMEM) containing 10% fetal bovine serum (FBS) and 5 U/mL penicillin, and 5 mg/mL streptomycin at 37° C. in a humidified culture incubator supplied with 5% CO2. […] The cells were counted using a hemocytometer. […]

Another experiment has as its system MCF-10A cells. Briefly: modified transmembrane assay, migration of MCF-10A cells. The following applies: 50 ng/mL EGF in lower chamber, 16 hours, no induced electric field (-E+EGF, FIG. 22). On the procedure: Weak a.c. electric fields hinder chemotaxis of “normal” breast epithelial cells. Experiments on combined chemotaxis and electrotaxis were performed with MCF10A cells in the same modified transmembrane assay in order to examine the effects of the induced a.c. electric field in hindering chemotaxis of non-transformed cells. MCF-10A cells are a non-transformed epithelial cell line derived from human fibrocystic mammary tissue. These cells are considered “normal” breast epithelial cells as they have a karyotype that is nearly diploid, are dependent on externally supplied growth factors for migration, and lack the ability to form tumors in nude mice. The growth factor EGF was used as an exogenous agent to induce MCF-10A cells to migrate in the modified transmembrane assay, as in the case of the SCP2 cells. No migration of MCF-10A cells was observed without EGF in the bottom chamber. […]
In one embodiment, MCF10A cells were cultured in Dulbecco's Modified Eagle's Media (DMEM) F12 containing 5% horse serum (HS), 20 ng/ml epidermal growth factor (EGF), 0.5 mg/ml hydrocortisone, 100 ng/ml cholrea toxin, 10 μg/ml insulin and 5 U/mL penicillin, and 5 mg/mL streptomycin at 37° C. in a humidified culture incubator supplied with 5% CO2. […] After allowing migration for 16 hours, cells were stained, photographed and counted as described for the preparation of the SCP2 cells. […]

Experiment [2] relates to SCP2 cells. Briefly: visualization of actin filaments by phalloidin staining and fluorescence microscopy. The following applies: EGF 100 ng/mL, one hour, no induced electric field (FIG. 6a middle panel). On the procedure:
The present invention allows the visualization of actin filaments that form the cytoskeleton of the SCP2 cells and play a crucial role in cell migration, when induced electric fields are applied in a non-contact manner as described earlier (FIG. 6). The images are quantified to determine the actin filament distribution within the cell as represented by the fluorescence intensity. In one embodiment, SCP2 cells are plated on a single-well, 60 mm diameter culture plate, allowed to migrate freely for an hour, and then fixed and stained with phalloidin-fluorophore conjugate for visualization of the actin filaments (FIG. 6a, left panel). […] These images have also been quantified after importing into MATLAB (FIGS. 18-20). […]
Analysis of actin filament distribution: images obtained from phalloidin and fluorescence microscopy are imported into MATLAB (2014a, Mathworks, Inc., Massachusetts, U.S.A.). […] Intensities are then separated into red, green, and blue so that the background and nuclei intensities may be filtered out and only the green fluorescence from the actin filaments is extracted. Actin fluorescence intensities are analyzed versus cell length (longer dimension being the length), and averaged.

For the substance “EGF: growth factor placed in the lower chamber to induce cell migration”, the “migration of SCP2 cells (chemotaxis) versus control” value in the experiment with SCP2 cells [1] is listed as “chemotaxis is well enabled”. Besides, the “migration of MCF-10A cells” value in the experiment with MCF-10A cells is reported as “strongly promotes migration”. Besides, in the experiment with SCP2 cells [2], the “actin filament polymerization in SCP2 cells” value is “polymerization of actin filaments can be observed at one end of some cells”.

As to SDF-1α, the “migration of SCP2 cells (chemotaxis) versus control” value in the experiment on SCP2 cells [1] was “chemotaxis is well enabled”.

The values above are taken from patent US10550383B2, “Galvanotaxis assay for quantitative assessment of the metastatic potential of cancer cells” (Ohio State Innovation Foundation, priority 2013, dated 2020).
